{"source": "patent US10100284B2", "about": "“Method for inducing differentiation of pluripotent stem cells into endodermal cells” (TOAGOSEI CO., LTD., priority 2013, dated 2018)", "key": {"[1]": {"test_system": "iPS cells (clone name: 201B2 or 201B7)", "test": "AFP ELISA of iPS cell culture supernatant", "assay_type": "cell-based, human", "settings": "peptide concentration in medium 6 μM; as culture time increased; FIG. 4", "description": "The stem cell differentiation-inducing activity of the differentiation-inducing synthetic peptide (Sample 1) obtained in Example 1 was evaluated by quantifying changes over time in the expressed amounts (typically extracellular secretion) of AFP and ALB, which are proteins known as markers of differentiation into endodermal cells. It is known that AFP is expressed in cells that have differentiated into liver precursor cells among the endodermal cells, while ALB is expressed in cells that have differentiated sufficiently to function effectively as hepatocytes (that is, hepatocytes or hepatocyte-like cells). […]\n200 μL of a substrate solution obtained by mixing 1 volume each of the accessory coloring reagent (A) and coloring reagent (B) was added per well, and left standing for 30 minutes in the dark. […] Absorbance A450 at 450 nm and absorbance A550 at 550 nm were then measured with a spectrophotometer in the reaction liquid in the wells.\nAbsorbance values A(450-550) were calculated by subtracting the absorbance A550 from the absorbance A450 obtained by the previous measurement (that is, absorbance A(450-550)=[…]) for each of the samples from the AFP evaluation test group and ALB evaluation test group. […]"}, "[2]": {"test_system": "human-derived iPS cells (clone name: 201B2 or 201B7)", "test": "Stem cell differentiation-inducing activity based on iPS cell transformation (optical microscope morphology)", "settings": "peptide concentration 4.0 μM; eight days after the beginning of culture; FIG. 1; peptide-free group 80% or more black (undifferentiated)", "description": "The differentiation-inducing activity of a differentiation-inducing synthetic peptide (Sample 1) obtained in Example 1 above was evaluated based on the transformation of iPS cells cultured and passaged in vitro. A peptide-free group was also provided as a comparative example. The details of the evaluation test were as follows.\nCells supplied by the Kyoto University Center for iPS cell Research and Application were used as the human-derived iPS cells in this example (clone name: 201B2 or 201B7, reference source: Takahashi K et al., Cell, 131, 861-872 (2007)). For the feeder cells used in culturing these iPS cells, mouse embryonic fibroblasts (MEF cells) were used to passage (maintain) the iPS cells, while mouse embryonic fibroblasts (cell strain SNL 76/7) supplied under license by the Baylor College of Medicine were used in testing to evaluate the stem cell differentiation-inducing activity of the differentiation-inducing synthetic peptide (Sample 1).\nFeeder cells that had been inactivated by mitomycin C treatment were seeded ahead of time on a gelatin-coated 24-well plate 1 to 4 days before seeding of the iPS cells. […]"}}, "note": "Where no end group is shown, it is not given here.", "data": [{"substance": "LLLLLLVGLTAPAGKKRTLRKNDRKKR-CONH2 (LLLLLLVGLTAPAGKKRTLRKNDRKKR-NH2) [Sample 1]", "values": [{"measurement": "AFP level of the culture supernatant in comparison with peptide-free group with the same culture time", "setting": "[1]", "value": "increased dramatically"}, {"measurement": "part of microscope field appearing white (occupied by colonies of differentiated iPS cells)", "setting": "[2]", "value": "≥ 80", "unit": "%"}]}]}
